Source: patent publication US20080171732A1, “New Pyridine Analogues IX 519” (AstraZeneca AB, priority 2007, published 2008)

Target: T1, P2Y12 receptor (Homo sapiens, UniProt Q9H244)
T1 construct: expressed in transfected cells; host or cells: CHO cells (membranes)
Test: Functional inhibition of 2-Me-S-ADP induced P2Y12 signalling (35S-GTPγS, cell membranes from P2Y12 transfected CHO-cells)
Format: biochemical
Settings: EC80 concentration of agonist 2-methyl-thio-adenosine diphosphate, 30° C., 45 min
Method: Functional inhibition of-the P2Y12 receptor can be measured by in vitro assays using cell membranes from P2Y12 transfected CHO-cells, the methodology is indicated below.
(§1) Functional inhibition of 2-Me-S-ADP induced P2Y12 signalling: 5 μg of membranes were diluted in 200 μl of 200 mM NaCl, 1 mM MgCl2, 50 mM HEPES (pH 7.4), 0.01% BSA, 30μg/ml saponin and 10 μM GDP. To this was added an EC80 concentration of agonist (2-methyl-thio-adenosine diphosphate), the required concentration of test compound and 0.1 μCi ^35S-GTPγS. The reaction was allowed to proceed at 30° C. for 45 min. Samples were then transferred on to GF/B filters using a cell harvester and washed with wash buffer (50 mM Tris (pH 7.4), 5 mM MgCl2, 50 mM NaCl). Filters were then covered with scintilant and counted for the amount of ^35S-GTPγS retained by the filter. Maximum activity was that determined in the presence of the agonist and minimum activity in the absence of the agonist following subtraction of the value determined for non-specific activity. The effect of compounds at various concentrations was plotted according to the equation
y=A+((B−A)/(1+((C/x)̂D)))
and IC50 estimated where • A is the bottom plateau of the curve i.e. the final minimum y value • B is the top of the plateau of the curve i.e. the final maximum y value • C is the x value at the middle of the curve. This represents the log EC50 value when A+B=100 • D is the slope factor. • x is the original known x values. • Y is the original known y values.
as §1, with “30 μg/ml” for “30μg/ml”, “0. 1” for “0.1”

T1 sequence (Q9H244 whole entry): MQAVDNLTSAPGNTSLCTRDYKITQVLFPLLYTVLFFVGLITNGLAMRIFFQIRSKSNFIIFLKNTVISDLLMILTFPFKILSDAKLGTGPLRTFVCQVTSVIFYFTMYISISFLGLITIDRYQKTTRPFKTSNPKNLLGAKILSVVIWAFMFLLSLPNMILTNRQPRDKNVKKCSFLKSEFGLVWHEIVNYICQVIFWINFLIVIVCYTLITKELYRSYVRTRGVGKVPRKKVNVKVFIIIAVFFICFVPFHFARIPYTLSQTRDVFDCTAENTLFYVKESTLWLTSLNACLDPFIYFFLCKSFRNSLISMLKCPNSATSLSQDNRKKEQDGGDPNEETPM

Compound | IC50
CCOC(=O)c1cc(C#N)c(N2CCC(C(=O)NS(=O)(=O)Cc3ccccc3)CC2)nc1OC [Example 1, Ethyl6-{4-[(benzylsulfonyl)carbamoyl]piperidin-1-yl}-5-cyano-2-methoxynicotinate] | 0.012 µM
CCOC(=O)c1cc(C#N)c(N2CC(C(=O)NS(=O)(=O)Cc3ccccc3)C2)nc1OC [Example 2, Ethyl6-{3-[(benzylsulfonyl)carbamoyl]azetidin-1-yl}-5-cyano-2-methoxynicotinate] | 0.018 µM
CCOC(=O)c1cc(C#N)c(N2CCC(C(=O)NS(=O)(=O)Cc3ccccc3)CC2)nc1OCC [Example 3, Ethyl6-{4-[(benzylsulfonyl)carbamoyl]piperidin-1-yl}-5-cyano-2-ethoxynicotinate] | 0.012 µM
CCOC(=O)c1cc(C#N)c(N2CCC(C(=O)NS(=O)(=O)Cc3ccccc3)CC2)nc1SCC [Example 4, Ethyl6-{4-[(benzylsulfonyl)carbamoyl]piperidin-1-yl}-5-cyano-2-(ethylthio)nicotinate] | 0.006 µM
CCOC(=O)c1cc(C#N)c(N2CCC(C(=O)NS(=O)(=O)Cc3ccccc3)CC2)nc1C#N [Example 5, Ethyl6-{4-[(benzylsulfonyl)carbamoyl]piperidin-1-yl}-2,5-dicyanonicotinate] | 0.009 µM
CCOC(=O)c1cc(C#N)c(N2CCC(C(=O)NS(=O)(=O)Cc3ccccc3)CC2)nc1CO [Example 6, Ethyl6-{4-[(benzylsulfonyl)carbamoyl]piperidin-1-yl}-5-cyano-2-(hydroxymethyl)nicotinate] | 0.017 µM
CCOC(=O)c1cc(C#N)c(N2CCC(C(=O)NS(=O)(=O)Cc3ccccc3F)CC2)nc1OC [Example 8, Ethyl5-cyano-6-(4-{[(2-fluorobenzyl)sulfonyl]carbamoyl}piperidin-1-yl)-2-methoxynicotinate] | 0.01 µM
CCOC(=O)c1cc(C#N)c(N2CCC(C(=O)NS(=O)(=O)Cc3ccccc3Cl)CC2)nc1OC [Example 9, Ethyl6-(4-{[(2-chlorobenzyl)sulfonyl]carbamoyl}piperidin-1-yl)-5-cyano-2-methoxynicotinate] | 0.032 µM
CCOC(=O)c1cc(C#N)c(N2CCC(C(=O)NS(=O)(=O)Cc3cccc(F)c3)CC2)nc1OC [Example 10, Ethyl5-cyano-6-(4-{[(3-fluorobenzyl)sulfonyl]carbamoyl}piperidin-1-yl)-2-methoxynicotinate] | 0.016 µM
CCOC(=O)c1cc(C#N)c(N2CCC(C(=O)NS(=O)(=O)Cc3ccc(F)cc3)CC2)nc1OC [Example 11, Ethyl5-cyano-6-(4-{[(4-fluorobenzyl)sulfonyl]carbamoyl}piperidin-1-yl)-2-methoxynicotinate] | 0.009 µM
CCOC(=O)c1cc(C#N)c(N2CCC(C(=O)NS(=O)(=O)Cc3ccc(Cl)cc3)CC2)nc1OC [Example 12, Ethyl6-(4-{[(4-chlorobenzyl)sulfonyl]carbamoyl}piperidin-1-yl)-5-cyano-2-methoxynicotinate] | 0.009 µM
CCOC(=O)c1cc(C#N)c(N2CCC(C(=O)NS(=O)(=O)Cc3ccc(C(F)(F)F)cc3)CC2)nc1OC [Example 13, Ethyl5-cyano-2-methoxy-6-[4-({[4-(trifluoromethyl)benzyl]sulfonyl}carbamoyl)piperidin-1-yl]nicotinate] | 0.019 µM
CCOC(=O)c1cc(C#N)c(N2CCC(C(=O)NS(=O)(=O)Cc3ccc(F)c(F)c3)CC2)nc1OC [Example 14, Ethyl5-cyano-6-(4-{[(3,4-difluorobenzyl)sulfonyl]carbamoyl}piperidin-1-yl)-2-methoxynicotinate] | 0.013 µM
CCOC(=O)c1cc(C#N)c(N2CCC(C(=O)NS(=O)(=O)Cc3ccc(Cl)cc3Cl)CC2)nc1OC [Example 15, Ethyl5-cyano-6-(4-{[(2,4-dichlorobenzyl)sulfonyl]carbamoyl}piperidin-1-yl)-2-methoxynicotinate] | 0.022 µM
CCOC(=O)c1cc(C#N)c(N2CCC(C(=O)NS(=O)(=O)Cc3ccc(F)cc3F)CC2)nc1OC [Example 16, Ethyl5-cyano-6-(4-{[(2,4-difluorobenzyl)sulfonyl]carbamoyl}piperidin-1-yl)-2-methoxynicotinate] | 0.008 µM
CCOC(=O)c1cc(C#N)c(N2CCC(C(=O)NS(=O)(=O)Cc3ccc(F)cc3Cl)CC2)nc1OC [Example 17, Ethyl6-(4-{[(2-chloro-4-fluorobenzyl)sulfonyl]carbamoyl}piperidin-1-yl)-5-cyano-2-methoxynicotinate] | 0.024 µM
CCOC(=O)c1cc(C#N)c(N2CCC(C(=O)NS(=O)(=O)Cc3ccc(Cl)cc3F)CC2)nc1OC [Example 18, Ethyl6-(4-{[(4-chloro-2-fluorobenzyl)sulfonyl]carbamoyl}piperidin-1-yl)-5-cyano-2-methoxynicotinate] | 0.01 µM
CCOC(=O)c1cc(C#N)c(N2CCC(C(=O)NS(=O)(=O)Cc3cccc(F)c3F)CC2)nc1OC [Example 19, Ethyl5-cyano-6-(4-{[(2,3-difluorobenzyl)sulfonyl]carbamoyl}piperidin-1-yl)-2-methoxynicotinate] | 0.031 µM
CCOC(=O)c1cc(C#N)c(N2CC(C(=O)NS(=O)(=O)c3ccccc3)C2)nc1OC [Example 20, Ethyl5-cyano-2-methoxy-6-{3-[(phenylsulfonyl)carbamoyl]azetidin-1-yl}nicotinate] | 0.102 µM
CCOC(=O)c1cc(C#N)c(N2CC(C(=O)NS(=O)(=O)Cc3ccccc3Cl)C2)nc1OC [Example 22, Ethyl6-(3-{[(2-chlorobenzyl)sulfonyl]carbamoyl}azetidin-1-yl)-5-cyano-2-methoxynicotinate] | 0.012 µM
CCOC(=O)c1cc(C#N)c(N2CC(C(=O)NS(=O)(=O)Cc3cccc(F)c3)C2)nc1OC [Example 23, Ethyl5-cyano-6-(3-{[(3-fluorobenzyl)sulfonyl]carbamoyl}azetidin-1-yl)-2-methoxynicotinate] | 0.044 µM
CCOC(=O)c1cc(C#N)c(N2CC(C(=O)NS(=O)(=O)Cc3ccc(F)cc3)C2)nc1OC [Example 24, Ethyl5-cyano-6-(3-{[(4-fluorobenzyl)sulfonyl]carbamoyl}azetidin-1-yl)-2-methoxynicotinate] | 0.009 µM
CCOC(=O)c1cc(C#N)c(N2CC(C(=O)NS(=O)(=O)Cc3ccc(Cl)cc3)C2)nc1OC [Example 25, Ethyl6-(3-{[(4-chlorobenzyl)sulfonyl]carbamoyl}azetidin-1-yl)-5-cyano-2-methoxynicotinate] | 0.006 µM
CCOC(=O)c1cc(C#N)c(N2CC(C(=O)NS(=O)(=O)Cc3ccc(C(F)(F)F)cc3)C2)nc1OC [Example 26, Ethyl5-cyano-2-methoxy-6-[3-({[4-(trifluoromethyl)benzyl]sulfonyl}carbamoyl)azetidin-1-yl]nicotinate] | 0.012 µM
CCOC(=O)c1cc(C#N)c(N2CC(C(=O)NS(=O)(=O)Cc3ccc(F)c(F)c3)C2)nc1OC [Example 27, Ethyl5-cyano-6-(3-{[(3,4-difluorobenzyl)sulfonyl]carbamoyl}azetidin-1-yl)-2-methoxynicotinate] | 0.035 µM
CCOC(=O)c1cc(C#N)c(N2CC(C(=O)NS(=O)(=O)Cc3ccc(Cl)cc3Cl)C2)nc1OC [Example 28, Ethyl5-cyano-6-(3-{[(2,4-dichlorobenzyl)sulfonyl]carbamoyl}azetidin-1-yl)-2-methoxynicotinate] | 0.005 µM
CCOC(=O)c1cc(C#N)c(N2CC(C(=O)NS(=O)(=O)Cc3ccc(F)cc3F)C2)nc1OC [Example 29, Ethyl5-cyano-6-(3-{[(2,4-difluorobenzyl)sulfonyl]carbamoyl}azetidin-1-yl)-2-methoxynicotinate] | 0.01 µM
CCOC(=O)c1cc(C#N)c(N2CC(C(=O)NS(=O)(=O)Cc3ccc(F)cc3Cl)C2)nc1OC [Example 30, Ethyl6-(3-{[(2-chloro-4-fluorobenzyl)sulfonyl]carbamoyl}azetidin-1-yl)-5-cyano-2-methoxynicotinate] | 0.009 µM
CCOC(=O)c1cc(C#N)c(N2CC(C(=O)NS(=O)(=O)Cc3ccc(Cl)cc3F)C2)nc1OC [Example 31, Ethyl6-(3-{[(4-chloro-2-fluorobenzyl)sulfonyl]carbamoyl}azetidin-1-yl)-5-cyano-2-methoxynicotinate] | 0.005 µM
CCOC(=O)c1cc(C#N)c(N2CC(C(=O)NS(=O)(=O)Cc3cccc(F)c3F)C2)nc1OC [Example 32, Ethyl5-cyano-6-(3-{[(2,3-difluorobenzyl)sulfonyl]carbamoyl}azetidin-1-yl)-2-methoxynicotinate] | 0.083 µM
